The data set in a line: solubility in water. The data set is classed as physicochemical. From the text:
The compound of formula (XIII) was made and analyzed.

The source of these data is US20200140375A1, “COMPOSITIONS AND METHODS FOR TREATING CONDITIONS ASSOCIATED WITH ALTERED TCA CYCLE METABOLISM” (IMBRIA PHARMACEUTICALS, INC., priority 2017, published 2020).

The compound `N[C@@H](COC(=O)CCC(=O)OCC(O)CO)C(=O)O` (stereo partly shown) [formula (XIII)] gave a solubility of 1200 mg/mL.

The solubility is the concentration that dissolves in the medium under given conditions. High values mean much dissolved substance, low ones little dissolved substance.
